# Values of other authors in US6541487B1, “PDE III inhibitors for treating sexual dysfunction” (R.T. Alamo Ventures I, LLC, priority 1998, dated 2003).
# Key:
# [1] = not given; remark: listed apart in the source
# corpus cavernosum = conditions: intracavernosal injection; severe atherosclerosis not involved
# [2] = for priapism: treatment of impotence
# [3] = tested on: coronary vascular smooth muscle tissue
# [4] = following oral administration
# [5] = tested on: plasma high density lipoprotein cholesterol; conditions: in vivo
smiles,measurement,setting,value
"Cn1cc([S+](C)[O-])c(=O)c2ccc(F)cc21 (stereo not drawn) [flosequinan, 7-fluoro-1-methyl-3-methylsulphinyl-4-quinolone]",time of peak plasma concentrations of flosequinan,following oral administration,1 to 2 h
same,time of peak metabolite plasma levels,"following oral dosage, metabolite of flosequinan",about seven
same,mean absolute bioavailability,"oral, single dose per day of 50 milligrams or 75 milligrams",72%
same,inhibition of PDE III,PDE III,selective inhibitor
same,solubility in organic solvents,[1],soluble in many organic solvents
same,solubility in water,[1],water soluble
Cc1ccc(N(CC2=NCCN2)c2cccc(O)c2)cc1 [phentolamine],erection after injection into a corpus cavernosum,corpus cavernosum,erection sufficient for vaginal penetration
COc1ccc(Cc2nccc3cc(OC)c(OC)cc23)cc1OC [papaverine],erection after injection into a corpus cavernosum,corpus cavernosum,erection sufficient for vaginal penetration
same,priapism,[2],often results in priapism
CCCc1nn(C)c2c(=O)[nH]c(-c3cc(S(=O)(=O)N4CCN(C)CC4)ccc3OCC)nc12 [Sildenafil],inhibition of PDE III,PDE III,negligible inhibition
same,cyclic AMP levels,[3],no change
same,cyclic GMP levels,[3],selectively increases
"O=C1CCc2cc(OCCCCc3nnnn3C3CCCCC3)ccc2N1 [cilostazol, 6-[4-(1-cyclohexyl-5-tetrazoyl)butoxy]-1,2,3,4-tetrahydro-2-oxoquinoline]",time of peak plasma concentrations of cilostazol,[4],2 to 4 h
same,platelet aggregation,platelet aggregation,suppresses
same,plasma high density lipoprotein cholesterol,[5],increasing
CC(COc1ccccc1)N(CCCl)Cc1ccccc1 (stereo not drawn) [phenoxybenzamine],erection after injection into a corpus cavernosum,corpus cavernosum,erection sufficient for vaginal penetration
same,carcinogenicity,[2]; in vivo,carcinogen
same,priapism,[2],often results in priapism
